Data from patent US12115208B2, “Small-molecule adjuvants for antibiotics to address antibiotic resistance” (HIGH POINT UNIVERSITY, priority 2017, dated 2024).
Converted amounts (≈) assume the structure as drawn. Read-outs that look alike come from different tables or passages of the source. One block for each compound: values may come before it.

What was measured:
[1] = tested on: S. aureus USA300 (MRSA); experiment: Minimum inhibitory concentration, broth microdilution; assay type: cell-based, Staphylococcus aureus; conditions: 18 h
Procedure: (§1) The compounds were then analyzed for antibiotic repotentiation activity. […] The tested strains included USA300, which is a common and particularly virulent strain of community-acquired MRSA.

[2] = tested on: S. aureus ATCC 43300 (MRSA); experiment: as above; assay type: cell-based, Staphylococcus aureus; conditions: 18 h
Procedure: as §1

[3] = tested on: S. aureus USA100 (MRSA); experiment: Antibiotic repotentiation (antibiotic MIC with/without compound); assay type: cell-based, Staphylococcus aureus
Procedure: (§2) The overnight culture was diluted into fresh CAMHB to a concentration of 5×10^5 CFU/ml. […] On the same plate, a standard microdilution MIC with the tested antibiotics and no added compound was also performed to compare the antibiotic MIC in the presence and absence of compound. […] Fold reductions were calculated by dividing the MIC of the antibiotic without compound by the MIC of the antibiotic in the presence of compound.

[4] = tested on: S. aureus USA300 (MRSA); experiment: as above; assay type: cell-based, Staphylococcus aureus; conditions: for Oxacillin MIC / Fold Reduction: +50 μM compound, S. aureus USA300 (MRSA); for Fold Reduction: oxacillin MIC; for MIC of antibiotic: MRSA USA300
Procedure: as §2, §1

[5] = tested on: S. aureus 43300 (MRSA); experiment: as above; assay type: cell-based, Staphylococcus aureus
Procedure: as §2, §1

[6] = tested on: S. aureus USA100 (MRSA); experiment: microbe, parasite or virus in culture; assay type: cell-based, Staphylococcus aureus; conditions: compound alone, CAMHB, 18 h
[7] = tested on: MRSA 43300 biofilm; experiment: Biofilm inhibition, crystal violet assay; assay type: cell-based, Staphylococcus aureus; conditions: 30 h
Procedure: (§3) A standard static crystal violet assay was used to quantify biofilm inhibition.^45 Cultures of S. aureus or S. epidermidis were grown overnight in TSBG (tryptic soy broth with 5% glucose) at 37° C. with shaking. These cultures were used to inoculate fresh TSBG to a calculated optical density of 0.01 at 600 nm (OD600). […] Untreated aliquots were used as a positive control and water served as a negative control. 100 μl of these suspensions were added to the wells of a 96-well polyvinylchloride microtiter plate. […] After incubation, media was discarded and the plates were washed with water to remove non-adherent cells. Adherent biofilms were stained with 110 μl of crystal violet (0.1% in water) and incubated at room temperature for thirty minutes. The crystal violet staining solution was discarded and plates were washed with water to remove excess stain. The resulting stained biofilms were solubilized with 200 μL of 95% ethanol for 10 minutes. 125 μl of the ethanol solutions were transferred to a clear polystyrene microtiter plate for evaluation. Absorbance at 540 nm was recorded using a BioTek Synergy H1 microplate reader. The absorbance of the negative control lanes was subtracted from the experimental values to account for background staining. Percent inhibition was calculated by comparison of the absorbance values of control versus treated wells under identical conditions.
Antibiotic resistance and biofilm formation share similar regulatory mechanisms. […] Biofilm inhibition was first assessed in S. aureus 43300, a methicillin-resistant strain (see Table 18). As described in Materials and Methods, a standard crystal violet assay was used to assess biofilm inhibition by the tested compounds. The IC50 is described as the compound concentration required to inhibit 50% of biofilm formation. The standard deviation is calculated from at least 3 independent experiments.

[8] = tested on: S. epidermidis 49461; experiment: Antibiotic repotentiation (oxacillin MIC with/without compound); assay type: cell-based, Staphylococcus epidermidis; conditions: +75 μM compound, S. epidermidis 49461
Procedure: as §2
Antibiotic potentiation in S. epidermidis was also investigated.

[9] = tested on: S. aureus ATCC 29213; experiment: Minimum inhibitory concentration, broth microdilution; assay type: cell-based; conditions: Staphylococcus aureus
Procedure: as §1

[10] = tested on: S. epidermidis ATCC 49461 biofilm; experiment: Biofilm inhibition, crystal violet assay; assay type: cell-based, Staphylococcus epidermidis; conditions: Staphylococcus epidermidis, ATCC49461, 30 h, read-out: Inhibition of biofilm formation IC50
Procedure: as §3

[11] = tested on: S. aureus NR-49120 (VRSA); experiment: Antibiotic repotentiation (antibiotic MIC with/without compound); assay type: cell-based, Staphylococcus aureus; conditions: VRSA NR-49120; for Fold Reduction: antibiotic MIC
Procedure: as §2

[12] = compound alone, S. aureus USA300 (MRSA), CAMHB, read-out: MIC
[13] = compound alone, S. aureus ATCC 43300 (MRSA), CAMHB, read-out: MIC
[14] = +50 μM compound, S. aureus USA100 (MRSA)
[15] = oxacillin MIC, +50 μM compound, S. aureus USA100 (MRSA)
[16] = +50 μM compound, S. aureus 43300 (MRSA)
[17] = oxacillin MIC, +50 μM compound, S. aureus 43300 (MRSA)
[18] = oxacillin MIC, +75 μM compound, S. aureus 43300 (MRSA)
[19] = oxacillin MIC, +150 μM compound, S. aureus 43300 (MRSA)

Compound: Brc1ccc2[nH]c3ccccc3c2c1 [IV-3]
MIC [1, 12]: >200 µM | MIC [2, 13]: >200 µM | Oxacillin MIC [3, 14]: 512 µg/mL | Fold Reduction [3, 15]: 1 | Oxacillin MIC [4]: 64 µg/mL | Fold Reduction [4]: 1 | Oxacillin MIC [5, 16]: 16 µg/mL | Fold Reduction [5, 17]: 2 | MIC [6]: >200 µM

Compound: Brc1cccc2[nH]c3ccccc3c12 [IV-4]
MIC [1, 12]: 100 µM | MIC [2, 13]: 200 µM | Oxacillin MIC [3, 14]: 4 µg/mL | Fold Reduction [3, 15]: 128 | Oxacillin MIC [4]: 2 µg/mL | Fold Reduction [4]: 32 | Oxacillin MIC [5, 16]: 32 µg/mL | Fold Reduction [5, 17]: 1 | MIC [6]: 100 µM (≈ 24.6 µg/mL)

Compound: Brc1ccc2[nH]c3ccc(Br)cc3c2c1 [IV-5]
MIC [1, 12]: >200 µM | MIC [2, 13]: >200 µM | Oxacillin MIC [3, 14]: 4 µg/mL | Fold Reduction [3, 15]: 128 | Oxacillin MIC [4]: 32 µg/mL | Fold Reduction [4]: 2 | Oxacillin MIC [5, 16]: 8/4 | Fold Reduction [5, 17]: 4/8 | MIC [6]: >200 µM

Compound: Clc1ccc2[nH]c3ccc(Cl)cc3c2c1 [IV-6]
MIC [1, 12]: >200 µM | MIC [2, 13]: >200 µM | IC50 [7]: 10.2 µM | Fold Reduction [3, 15]: 1024/2048 | Oxacillin MIC [4]: 16/8 | Fold Reduction [4]: 4/8 | Oxacillin MIC [5, 16]: 1 µg/mL | Fold Reduction [5, 17]: 32 | MIC [6]: >200 µM

MIC ([1]; Staphylococcus aureus, compound alone, S. aureus USA300 (MRSA), CAMHB, read-out: MIC): 600 µM | MIC ([2]; Staphylococcus aureus, compound alone, S. aureus ATCC 43300 (MRSA), CAMHB, read-out: MIC): 600 µM | Oxacillin MIC [8]: 8 µg/mL | MIC ([9]; ATCC29213, compound alone, S. aureus ATCC 29213, CAMHB, 18 h, read-out: MIC): 600 µM | IC50 [10]: 270 µM
Compound: CN1CCN(C2=Nc3ccccc3Oc3ccc(Cl)cc32)CC1 [Loxapine, 2-chloro-11-(4-methyl-1-piperazinyl)dibenz[b,f][1,4]oxazepine, reference compound]
Fold Reduction ([8]; oxacillin MIC): 2 | Fold Reduction [5, 18]: 1 | Fold Reduction [5, 19]: 4

Compound: Cc1cc2c(s1)Nc1ccccc1N=C2N1CCN(C)CC1 [Olanzapine, reference compound]
MIC ([1]; Staphylococcus aureus): 600 µM | MIC ([2]; Staphylococcus aureus): 600 µM | MIC ([9]; ATCC29213, 18 h): 600 µM | Fold Reduction [5, 18]: 1 | Fold Reduction [5, 19]: 1

Compound: CN[C@H](CC(C)C)C(=O)N[C@H]1C(=O)N[C@@H](CC(N)=O)C(=O)N[C@H]2C(=O)N[C@H]3C(=O)N[C@H](C(=O)N[C@H](C(=O)O)c4cc(O)cc(O)c4-c4cc3ccc4O)[C@H](O)c3ccc(c(Cl)c3)Oc3cc2cc(c3O[C@@H]2O[C@H](CO)[C@@H](O)[C@H](O)[C@H]2O[C@H]2C[C@](C)(N)[C@H](O)[C@H](C)O2)Oc2ccc(cc2Cl)[C@H]1O [Vancomycin]
MIC of antibiotic ([11]; +Loratadine 25 μM): 512 µg/mL | MIC of antibiotic ([11]; +Loratadine 50 μM): 128 µg/mL | Fold Reduction ([11]; +Loratadine 25 μM): 2 | Fold Reduction ([11]; +Loratadine 50 μM): 8 | MIC of antibiotic ([11]; antibiotic alone): 1024 µg/mL | MIC of antibiotic ([3]; +Loratadine 25 μM, MRSA USA100): 2 µg/mL | MIC of antibiotic ([3]; +Loratadine 50 μM, MRSA USA100): 2 µg/mL | Fold Reduction ([3]; antibiotic MIC, +Loratadine 25 μM, MRSA USA100): 1 | Fold Reduction ([3]; antibiotic MIC, +Loratadine 50 μM, MRSA USA100): 1 | MIC of antibiotic ([3]; antibiotic alone, MRSA USA100): 2 µg/mL | MIC of antibiotic ([4]; +Loratadine 25 μM): 1 µg/mL | MIC of antibiotic ([4]; +Loratadine 50 μM): 1 µg/mL | MIC of antibiotic ([4]; antibiotic alone): 1 µg/mL | MIC of antibiotic ([5]; +Amoxapine (150 μM), S. aureus 43300 (MRSA)): 2 µg/mL | MIC of antibiotic ([5]; +Loratadine 25 μM, MRSA 43300): 1 µg/mL | MIC of antibiotic ([5]; +Loratadine 50 μM, MRSA 43300): 1 µg/mL | Fold Reduction ([5]; antibiotic MIC, +Amoxapine (150 μM), S. aureus 43300 (MRSA)): 1 | Fold Reduction ([5]; antibiotic MIC, +Loratadine 25 μM, MRSA 43300): 1 | Fold Reduction ([5]; antibiotic MIC, +Loratadine 50 μM, MRSA 43300): 1 | MIC of antibiotic ([5]; antibiotic alone, no compound, S. aureus 43300 (MRSA)): 2 µg/mL | MIC of antibiotic ([5]; antibiotic alone, S. aureus ATCC 43300 (MRSA)): 1 µg/mL
